Data taken from US12714685B2, “Drug combination and its use in the treatment of cancer” (priority 2020, dated 2026).
Where two headings read alike, the source gives them in different places.

Experiments:
LN-18 cells = test: In vitro cytotoxicity (LDH release assay) on LN-18 glioma cells; settings: for IC50: Homo sapiens, LN-18, 24 h
Source text: (§1) Two colorimetric assays were established to monitor cytotoxicity in response to the tested drugs, one measuring the release of lactate dehydrogenase (LDH) from cells, a well-established marker for cell toxicity, and the other measuring the activity of mitochondrial […], an indicator of cell viability, by the reduction of the soluble tetrazolium dye MTT. […] Cells were also monitored by direct microscopic observation. Controls included cells treated with medium without drug and cells treated with Camptothesin, a known cytotoxic agent, as positive control. Incubation with drug concentrations was carried out for 24 hours at 37° C.
(§2) DAB was tested in vitro under ideal conditions in absence of any competing physiological amino acid allowing low concentrations of 0.5, 1, 2, 3, 4, 5, 6, 8, 12, and 16 mM.
(§3) Prazosin was tested at concentrations of 0.1, 0.5, 1, 2, 5, 10, 20, 30 and 50 μM.
DAB was used at concentrations of 1, 2 and 4 mM. Each of these concentrations was tested alone or in combination with 1, 2 or 4 μM of Prazosin, i.e. the combinations tested were the following: • 1 mM DAB+1 μM Prazosin • 1 mM DAB+2 μM Prazosin • 1 mM DAB+4 μM Prazosin • 2 mM DAB+1 μM Prazosin • 2 mM DAB+2 μM Prazosin • 2 mM DAB+4 μM Prazosin • 4 mM DAB+1 μM Prazosin • 4 mM DAB+2 μM Prazosin • 4 mM DAB+4 μM Prazosin

HMC3 cells = test: In vitro cytotoxicity (LDH release assay) on non-malignant HMC3 cells; format: cell-based, human; settings: 24 hours at 37° C.
Source text: as §1, §2, §3

human glioma cells = settings: cited from earlier work
[1] = two clinical studies, small patient series; cited from earlier work
[2] = Solubility in aqueous media
glioblastoma = settings: mouse xenografts; cited from earlier work

NCC[C@H](N)C(=O)O [DAB, L-2,4 diaminobutyric acid]
cytotoxic effect against glioma cell line LN-18 (in words) (LN-18 cells; 24 hours at 37° C.): strong cytotoxic effect | IC50 (LN-18 cells; read-out: IC50, cytotoxic effect against glioma cell line LN-18): 3.8 mM | IC50 against non-malignant HMC3 cells (HMC3 cells): no IC50 could be determined | toxicity towards non-malignant HMC3 cells (in words) (HMC3 cells): weak toxicity | antitumoral activity in vitro (human glioma cells): antitumoral activity | clinical benefit [1]: failed to demonstrate significant clinical benefit | solubility in aqueous media [2]: soluble

COc1cc2nc(N3CCN(C(=O)c4ccco4)CC3)nc(N)c2cc1OC [Prazosin]
cytotoxic effect against glioma cell line LN-18 (in words) (LN-18 cells): strong cytotoxic effect | IC50 (LN-18 cells; read-out: IC50, cytotoxic effect against glioma LN-18 line): 0.0034 mM | IC50 against non-malignant HMC3 cells (HMC3 cells): no IC50 could be determined | toxicity towards non-malignant HMC3 cells (in words) (HMC3 cells): little cytotoxicity | glioblastoma growth (glioblastoma): inhibit glioblastoma growth
